Marks after values point to notes of the source that are not given here.
Biological target: T1, Styrene monooxygenase (StyAB), FAD-dependent monooxygenase component (StyA) (Pseudomonas sp, UniProt O50214)
T1 construct: made in house; host or cells: Escherichia coli JM101
T1 sequence (O50214 1-415): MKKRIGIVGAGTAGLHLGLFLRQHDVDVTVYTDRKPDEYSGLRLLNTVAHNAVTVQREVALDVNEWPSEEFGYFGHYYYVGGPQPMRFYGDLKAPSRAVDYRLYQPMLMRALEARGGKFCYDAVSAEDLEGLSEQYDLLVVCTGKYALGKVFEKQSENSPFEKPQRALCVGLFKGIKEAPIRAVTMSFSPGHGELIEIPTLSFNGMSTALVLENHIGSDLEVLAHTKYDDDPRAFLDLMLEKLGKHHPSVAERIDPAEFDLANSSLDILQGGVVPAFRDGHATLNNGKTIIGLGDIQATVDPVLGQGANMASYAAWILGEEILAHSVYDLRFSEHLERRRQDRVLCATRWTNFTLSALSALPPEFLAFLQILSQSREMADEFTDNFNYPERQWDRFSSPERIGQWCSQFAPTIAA
Test: Electroenzymatic epoxidation of styrene derivatives by StyA with direct electrochemical FAD regeneration
Format: biochemical
Conditions: for ee-value: optical purity of the (S)-epoxide product of the electroenzymatic epoxidation
Procedure: Initial experiments on the electroenzymatic epoxidation were performed with trans-β-methyl styrene as substrate. Electrolyses were performed potentiostatically applying a cathode potential of −550 mV vs. Ag/AgClsat. No product formation was detectable when either StyA or FAD was omitted from the reaction medium. […] Similarly, a broad variety of diversely substituted vinylaromatic compounds could be transformed to the more than 98% optically pure corresponding (S) epoxides (Table 1).
StyA was enriched from recombinant Escherichia coli JM101 as described previously^[35]. The purity of the lyophilized biocatalyst was approximately 70% (as determined by SDS gel-electrophoresis).
Electrolyses were performed in a thermostatted stirred tank reactor. Cylindrical carbon felt served as cathode (working electrode) and the potential was adjusted versus a saturated Ag/AgClsat. reference electrode. The dimensions of the working electrode are given a macroscopic area (corresponding to an average of 27.1±2.1 mg cm^−2). Conditions of either a divided or an undivided cell were chosen. For the divided cell, the Pt-wire counter electrode was placed in a dialysis membrane; otherwise a Pt-foil (Ø1 cm) was used. After supplementing the reactor with the reaction components indicated a cathode potential of −550 mV vs. Ag/AgClsat was applied. In case of divided cell, O2 was supplied by heterogeneous intake of air (intake rates were estimated with a Hewlett Packard soap film flowmeter; under the conditions of an undivided cell, O2 was generated at the counter electrode.
Reaction rates (and enzyme performances calculated thereof were determined based on the product formation as determined by HPLC using protocols previously reported.^[34, 35]

[1] = potassium phosphate buffer 50 mM pH 7.5, T = 30° C., c(StyA) = 2.13 μM, c(FAD) = 300 μM, catalase 480 U mL^−1, substrate 2 mM, cathode 14 cm^2, −550 mV vs. Ag/AgClsat

Compound	ee-value [%]	Rate [1] [U g^−1]	also measured
c1ccc2c(c1)CC[C@H]1O[C@@H]21	99.2	–	–
c1ccc([C@H]2CO2)cc1	98.5	–	–
C=Cc1ccccc1	–	28.1	–
C=Cc1cccc(Cl)c1	–	–	Rate (as general conditions but T = 25° C., activity determined after 15 min): 27.7 [b] U g^−1
C=C(C)c1ccccc1	–	14.6	–
C1=Cc2ccccc2CC1	–	58.9	–
C/C=C/c1ccccc1 [trans-β-methyl styrene]	–	35.5	–
C[C@@H]1O[C@H]1c1ccccc1 [(1S,2S)-1-phenylpropylene oxide]	>99.9	–	Optical purity of product (substrate trans-β-methyl styrene, −550 mV vs. Ag/AgClsat, all reaction components present): practically enantiopure
C[C@]1(c2ccccc2)CO1	99.5	–	–
Clc1cccc([C@H]2CO2)c1	98.1	–	–

— US20070231871A1, “Process for an Enzymatic Oxygenation by Direct Electrochemical Regeneration of the Fad-Dependent Monooxygenase” (priority 2004, published 2007)
